Like-named read-outs stand apart in the source and are kept apart here.
Experiments:
visceral pain = test: Visceral pain, acetic acid induced writhing responses; type: in vivo, ICR mice; conditions: for inhibition of pain response as compared to untreated animals: 10 mg/kg p.o. in phosphate buffer; for reduction of writhing responses as compared to vehicle treated animals: second study; for effect of antagonist alone on number of writhing responses: 1 mg/kg i.v.; for activity in visceral pain model: fumaric acid up to 5 mg/kg, Gabapentin up to 200 mg/kg, celecoxib up to 10 mg/kg
Method: For the i.v. part of the study, compounds were dissolved in CREMOPHOR®:Ethanol and diluted 1:20 in saline prior to injection, fifteen minutes before pain induction. When compounds were delivered per os, they were dissolved in phosphate buffer or in CREMOPHOR®:Ethanol as previously described and administered 1 hour before pain induction. Each treatment group, except for controls comprising at least 30 animals, was composed of at least 6 animals. Fifteen or sixty minutes later, depending on the route selected for drug administration, the mice were injected i.p. with 10 ml/kg of 0.6% acetic acid and the number of visceral pain related behaviors (writhing, stretching, contractions of the abdomen accompanied by an elongation of the body and extension of the hind limbs) is counted over a period of 5 minutes, starting 5 minutes after the acetic acid administration. These visceral pain related behaviors are globally defined as writhing responses (WR). The results are expressed as mean number of writhing responses±SEM. Data were analyzed using analysis of variance (ANOVA) followed by post-hoc Fisher test. A value of p<0.05 was considered to be statistically significant and is indicated on the figure by an asterisk over the relevant treatment group.
The following results were obtained at 2 mg/kg i.v. of test compounds or, in the case of the study performed with cannabinoid receptor antagonists, 1 mg/kg test compound or antagonist alone and 1 mg/kg test compound+1 mg/kg antagonist. In a separate study, it was shown that analgesic activity of compounds of the invention was dose related.

CB2 receptor = CB2 receptor (Homo sapiens, UniProt P34972); test: CB2 binding assay
CB1 receptor = CB1 receptor (Homo sapiens, UniProt P21554); test: CB1 binding assay
inflammatory pain = test: Inflammatory pain and paw edema, λ carrageenan; type: in vivo, Sprague Dawley rats
Method: Male Sprague Dawley rats (average body weight 200 g, Harlan, Israel) were transiently sedated by placement on dry ice for the duration of the injections. Rats were injected subcutaneously, in the subplantar region of one (right) paw with 0.1 ml of 2% w/v λ Carrageenan in sterile saline. […] Test compounds were administered p.o. by oral gavage immediately after the carrageenan injection as pretreatment. Vehicle (PB) treated animals were used as controls. Before induction of inflammatory pain and three hours after injection, the animals reactions to pain stimuli were tested in two systems. The first stimulus was thermal and assessed by the Plantar Test according to Hargreaves, using Ugo Basile Model 7370. The scale was set to an intensity of 50 arbitrary units. The latency time till the animal lift a paw as a reaction to the thermal stimulus was recorded for both the inflamed and non-inflamed hind paws. The second stimulus was mechanical (tactile) and assessed using a Dynamic Plantar Sesthesiomether (Ugo Basile Model 73400-002). […] Finally, the impact on paw edema was assessed. Paw thickness is measured using a dial thickness gauge (Spring-dial, constant low pressure gauge, Mitutoyo, TG/L-1, 0.00 mm) and paw volume is measured using a plethysmometer (model #7150, Ugo Basile, Italy). At the end of the study, animals were euthanized with an i.p. injection of 100 mg/kg pentobarbitone.
The results are measured as the differences between the two hind paws at time 0 and 3 hours both as ALT, for the latency time in the thermal part of the study, and as ΔForce, for the mechanical part of the study. The paw volume is expressed as percent from vehicle treated animals. Results are expressed as mean±SEM for each treatment group and the differences among those groups are analyzed by analysis of variance (ANOVA) followed by post-hoc Tukey's test. A value of p<0.05 was considered to be statistically significant and is indicated on the figure by an asterisk over the relevant treatment group.

MBP induced acute EAE = test: MBP induced acute EAE; type: in vivo, Lewis rats; conditions: 30 mg/kg i.v. daily for 5 consecutive days from day of disease induction
Method: In the present study, EAE was induced by injection of Myelin Basic Protein (MBP), a method known to model the acute phase of MS. In this model the onset of the disease is observed by the appearance of clinical symptoms about 10 days after induction. The disease progresses and the clinical score increases and peaks around day 15 and spontaneous recovery is observed around day 23 after induction of the disease.
Female Lewis rats (average body weight 130-180 g, Harlan, Israel) were injected s.c. into the hind paws with 25 μg of purified guinea pig myelin basic protein (MBP, Sigma) emulsified in 0.1 ml of Complete Freund's Adjuvant (Difco). Animals were maintained on a 12 hours light/12 hours dark regimen, at a constant temperature of 22° C., with food and water ad libitum. Starting from day 8 following induction, animals were followed up on a daily basis. The results are recorded as clinical score; score of 0 indicates a normal animal with no clinical signs, 0.5 indicates a loss of tonicity in the tail's distal part, 1 indicates whole tail paralysis, 1.5 indicates hind legs weakness in one leg, 2 indicates hind legs weakness in two legs, 2.5 indicates fore legs paralysis in one leg, 3 indicates paralysis of all four legs, 4 indicates complete body paralysis and moribund state and 5 indicates death. The clinical score of the animals is recorded for 15 days following onset of disease until the end of the study 25 days following induction and the area under the curve (AUC) is calculated over this period of time.
Few routes of administration were assessed and the treatments were either administered intravenously (in CE vehicle) or orally by gavage (in PB vehicle) at volume dose of 5 ml/kg.
Results are expressed as mean±SEM and the differences between the treatment groups were analyzed by analysis of variance (ANOVA) followed by Tukey's post hoc test. A value of p<0.05 was considered to be statistically significant and is indicated on the figure by an asterisk over the relevant treatment group.
Compound 18A was dissolved in CREMOPHOR EL®:ethanol and further diluted in physiological buffer prior to i.v. administration. It is now disclosed that compound 18F could be dissolved directly in 80 mM phosphate buffer (pH 6.4) and administered p.o. Compound 18F was administered by oral gavage at doses of 20, 30, 40, 50 and 60 mg/kg to animals showing clinical signs of the disease. Each treatment group comprised at least 10 animals at onset of disease. At some doses, experiments were repeated up to four times.

[1] = tested on: Taxol® induced neuropathic pain; test: Taxol® induced neuropathic pain; type: in vivo, Sprague Dawley rats; conditions: gabapentin 100 mg/kg i.p., morphine 5 mg/kg i.p.; not statistically significant
Method: Male Sprague Dawley rats (average body weight 150-200 g, Harlan, Israel) were administered i.p. with 6 mg/kg Taxol® (Bristol Myers Squibb, USA) every other day for 9 days. On day 13, baseline pain threshold was measured. One hour later, the animals were administered with 5 ml/kg i.p. of vehicle (PB) only and pain threshold was re-established. After an additional hour animals were treated with various doses of compound 18F ranging from 0.5 mg/kg up to 10 mg/kg administered i.p. Morphine at 5 mg/kg i.p. and gabapentin at 100 mg/kg i.p served as positive controls. Each treatment group comprised at least eight animals. One hour post drug administration pain threshold was monitored using thermal and mechanical stimuli as previously described. At the end of the study, rats were euthanized with sodium pentobarbitone 100 mg/kg i.p. Sample rats were then transfused with saline and heparinized 4% formaldehyde solution. The L4-L5 area of the spinal cord and the sciatic nerve were taken for histopathology assessment.
The time latencies for thermal hyperalgesia, and force needed to induce pain of the different treatment groups are compared, using one way ANOVA (analysis of variance), followed by Duncan's post hoc test. A p<0.05 value was considered statistically significant and is indicated on the figure by an asterisk over the relevant treatment group.

iNOS = iNOS gene expression in LPS activated RAW 264.7 macrophages (real-time RT-PCR); type: cell-based, mouse; conditions: 10 μM, 1 h pre-treatment, 3 hrs after LPS activation
Method: RAW 264.7 macrophages, a mouse cell line (ATCC # TIB 71), were grown in Dulbecco's modified Eagle's medium (DMEM) with 4 mM L-glutamine adjusted to contain 1.5 g/L sodium bicarbonate, 4.5 g/L glucose, and 10% heat inactivated fetal bovine serum. Cells were grown in tissue culture flasks and seeded at appropriate density into 6 wells tissue culture plates. Four million Raw cells in half a milliliter were stimulated with 1 μg/ml Lipopolysaccharide E. coli 055:B5 (DIFCO Laboratories). The mouse macrophages were pre-treated for one hour with controls or 10 μM of test compounds, and later on activated with LPS. RNA samples were extracted from the cells 3 hrs after activation and iNOS gene expression levels were analyzed by real-time RT-PCR as previously described. For western blot analysis, compounds were tested at 1, 5 and 10 μM and cells were harvested 24 hrs after LPS stimulation. Supernatant were collected and NO secretion was analyzed using ELISA. Cells were washed 3 times with cold PBS, scrapped and lyzed in 100 μl cell lysis buffer containing 20 mM HEPES, pH 7.6, 150 mM NaCl, 1.5 mM MgCl2, 0.2 mM EDTA, 1% Triton X-100, 10% glycerol, 1 mM DTT, 1 mM PMSF, 10 μg/ml aprotinin. 5 µg/ml leupeptin, 10 mM p-nitrophenyl phosphate, 100 mM β-glycerophosphate, 1 mM sodium fluoride, and 0.1 μM sodium orthovanadate. Cells were lyzed on ice for 10 minutes before further processing.
The results of this experiment are expressed as fold activation of iNOS over non-activated macrophages, after normalization to cyclophilin A expression. Compound 18A inhibits 63% of iNOS gene expression, and compounds 18B, 18E and 18F inhibit 55%, 25% and 100% respectively. […] This surprising observation strengthen the fact that compounds of the invention, though chemically related, have distinct and unexpected properties.

Sequence of CB2 receptor (P34972 whole entry): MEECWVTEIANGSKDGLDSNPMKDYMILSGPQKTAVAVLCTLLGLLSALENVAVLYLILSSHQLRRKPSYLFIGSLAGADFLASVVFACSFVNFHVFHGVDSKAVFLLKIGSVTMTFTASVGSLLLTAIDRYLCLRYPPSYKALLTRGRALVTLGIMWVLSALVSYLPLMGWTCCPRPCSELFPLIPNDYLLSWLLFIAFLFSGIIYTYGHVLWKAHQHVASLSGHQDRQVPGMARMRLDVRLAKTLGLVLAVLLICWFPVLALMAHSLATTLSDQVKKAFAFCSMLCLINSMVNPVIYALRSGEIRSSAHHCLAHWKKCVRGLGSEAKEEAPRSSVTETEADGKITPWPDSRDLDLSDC
Sequence of CB1 receptor (P21554 whole entry): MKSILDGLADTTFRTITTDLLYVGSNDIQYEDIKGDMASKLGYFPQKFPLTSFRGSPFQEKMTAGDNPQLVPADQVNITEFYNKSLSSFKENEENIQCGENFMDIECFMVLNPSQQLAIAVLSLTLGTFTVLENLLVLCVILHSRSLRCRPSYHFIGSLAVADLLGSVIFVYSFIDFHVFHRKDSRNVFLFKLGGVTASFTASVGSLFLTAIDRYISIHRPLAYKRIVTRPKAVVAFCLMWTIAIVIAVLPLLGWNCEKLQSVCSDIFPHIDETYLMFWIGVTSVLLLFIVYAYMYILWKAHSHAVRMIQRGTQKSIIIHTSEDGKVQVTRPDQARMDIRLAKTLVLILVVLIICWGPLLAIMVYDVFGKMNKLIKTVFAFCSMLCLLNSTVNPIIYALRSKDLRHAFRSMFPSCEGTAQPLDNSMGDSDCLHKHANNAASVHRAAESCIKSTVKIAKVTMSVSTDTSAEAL

In the case of CCCCCCC(C)(C)c1cc(OC(=O)CCC(=O)O)c([C@H]2CC(=O)C3CC2C3(C)C)c(OC(=O)CCC(=O)O)c1 (single isomer, unassigned; (-)) [Compound 18C, (−)-4-{4-[1,1-dimethylheptyl]-2,6-disuccinate-phenyl}-6,6-dimethyl-bicyclo[3.1.1]heptan-2-one], the “inhibition of pain response as compared to untreated animals” value (“inhibition … compared to untreated animals” for short) (visceral pain) is reported as 93%, the IC50 (CB2 receptor) is reported as 1.52 nM and the IC50 (CB1 receptor) is reported as 117 nM.
In the case of CCCCCCC(C)(C)c1cc(OP(=O)(OCC)OCC)c([C@H]2CC(=O)C3CC2C3(C)C)c(OP(=O)(OCC)OCC)c1 (single isomer, unassigned; (-)) [Compound 18D, (−)-4-{4-[1,1-dimethylheptyl]-2,6-bi-diethylphosphate-phenyl}-6,6-dimethyl-bicyclo[3.1.1]heptan-2-one], the “inhibition of writhing responses as compared to vehicle treated group” value (“inhibition … compared to vehicle treated group” below) (visceral pain; 2 mg/kg i.v.) is reported as “minimal effect”, the IC50 (CB2 receptor) is reported as > 1000 nM and the IC50 (CB1 receptor) is reported as > 1000 nM.
With CCCCCCC(C)(C)c1cc(OC(=O)/C=C/C(=O)O)c(C2CC(=O)[C@H]3C[C@@H]2C3(C)C)c(OC(=O)/C=C/C(=O)O)c1 (single isomer, unassigned; (-)) [Compound 18G, (−)-4-{4-[1,1-Dimethylheptyl]-2,6-difumarate-phenyl}-6,6-dimethyl-bicyclo[3.1.1]heptan-2-one] the “inhibition … compared to vehicle treated group” value (visceral pain; 2 mg/kg i.v.) was 91%, the “inhibition … compared to untreated animals” value (visceral pain) was 56% and the “paw volume, percent of vehicle” value (inflammatory pain; 20 mg/kg p.o.) was 96%. The “reduction of ΔLT, thermal stimulus” value (inflammatory pain; 20 mg/kg p.o.) was “ineffective”, the “reduction in Δforce, mechanical stimulus” value (inflammatory pain; single dose of 20 mg/kg p.o.) was 8% and the IC50 (CB2 receptor) was 30 nM. It also gave an IC50 (CB1 receptor) of 325 nM.
CCCCC(C)(C)c1cc(O)c([C@H]2CC(=O)C3CC2C3(C)C)c(OC(=O)/C=C/C(=O)O)c1 (single isomer, unassigned; (-)) [Compound 18H, (−)-4-{4-[1,1-Dimethylpentyl]-2-fumarate-6-hydroxy-phenyl}-6,6-dimethyl-bicyclo[3.1.1]heptan-2-one] was tested, and the “inhibition … compared to vehicle treated group” value (visceral pain; 2 mg/kg i.v.) was 38% and the “inhibition … compared to untreated animals” value (visceral pain) was “not effective”.
Oc1cc2c(cc1O)CN(C(=S)NCCc1ccc(Cl)cc1)CCC2 [CPZ, Capsazepine, reference compound] was tested, and the “reduction of writhing responses as compared to vehicle treated animals” value (visceral pain; 0.5 mg/kg i.v.) was “no activity” and the “reduction of writhing responses as compared to vehicle treated animals” value (visceral pain; 2 mg/kg i.v.) was 67%.
Cc1c(C(=O)NN2CCCCC2)nn(-c2ccc(Cl)cc2Cl)c1-c1ccc(Cl)cc1 [SR141716A, reference compound] was tested, and the “effect of antagonist alone on number of writhing responses” value (visceral pain) was “had not effect”.
With Cc1ccc(-c2cc(C(F)(F)F)nn2-c2ccc(S(N)(=O)=O)cc2)cc1 [celecoxib, reference compound] the “activity in visceral pain model” value (visceral pain) was “inactive”.
For O=C(O)/C=C/C(=O)O [fumaric acid, reference compound], the “activity in visceral pain model” value (visceral pain) was “inactive”.
In the case of C[C@H]1C[C@@H]2[C@H]([C@@H](O)C[C@@]3(C)[C@H]2CC[C@]3(O)C(=O)CO)[C@@]2(C)C=CC(=O)C=C12 [methylprednisolone, reference compound], the “reduction in AUC of clinical score” value (MBP induced acute EAE) is reported as 34%.
CN1CC[C@]23c4c5ccc(O)c4O[C@H]2[C@@H](O)C=C[C@H]3[C@H]1C5 [morphine, reference compound] was tested, and the “effect on pain threshold” value [1] was “trend of increasing the pain threshold”.
For “(−)-4-{4-[1,1-Dimethylpentyl]-2-succinate-6-hydroxy-phenyl}-6,6-dimethyl-bicyclo[3.1.1]heptan-2-one [Compound 18E]”, the “inhibition of iNOS gene expression” value (iNOS) was 25%, the “inhibition … compared to vehicle treated group” value (visceral pain; 2 mg/kg i.v.) was “minimal effect” and the “inhibition … compared to untreated animals” value (visceral pain) was “not effective”. The IC50 (CB2 receptor; read-out: CB2 IC50, displacement of radioligand) was 7.4 nM and the IC50 (CB1 receptor; read-out: CB1 IC50, displacement of radioligand) was 315 nM.
In the case of SR144528 [reference compound], the “effect of antagonist alone on number of writhing responses” value (visceral pain) is reported as “had not effect”.

Reference: patent US20090068143A1, “ORALLY EFFECTIVE C[…]” (priority 2005, published 2009)
